In US11253477B2, “Compositions based on propolis nanocapsules which can be used as carriers for substances of interest, methods for producing same and use thereof” (EMPRESA BRASILEIRA DE PESQUISA AGROPECUÁRIA—EMBRAPA, priority 2010, dated 2022):

System: Staphyloccoccus aureus, strain ATCC23273
Test: Colony forming units in agar BHI of samples from the bactericidal/bacteriostatic test
Assay type: cell-based, Staphylococcus aureus
Set-up: key to Colony forming unites (CFU) in agar BHI: i = uncountable
Description: The bactericidal/bacteriostatic effect of the propolis nanoparticles, of nanoencapsulated arithromycin in propolis extract and of pure arithromycin was determined in vitro against samples of Staphylocossus aureus (strain ATCC23273) cultivated in Mueller Hinton culture broth, according to Table 3. Since azithromycyn is a bacteriostatic antibiotic, the samples of the different dilutions were used to determine the core of colony forming units (UFC) in agar BHI (brain-heart-infusion), and thereby determine the bactericidal/bacteriostatic effect shown in Table 4.

## CC[C@H]1OC(=O)[C@H](C)[C@@H](O[C@H]2C[C@@](C)(OC)[C@@H](O)[C@H](C)O2)[C@H](C)[C@@H](O[C@@H]2O[C@H](C)C[C@H](N(C)C)[C@H]2O)[C@](C)(O)C[C@@H](C)CN(C)[C@H](C)[C@@H](O)[C@]1(C)O [A, azithromycin]
From broth test and CFU count
  concentration with bactericidal effect on Staphylococcus aureus: ≥ 128 µg/mL
Origin tube 4
  Colony forming unites (CFU) in agar BHI: i
Origin tube 8
  Colony forming unites (CFU) in agar BHI: 30 UFC
Origin tube 16
  Colony forming unites (CFU) in agar BHI: 3 UFC
Origin tube 32
  Colony forming unites (CFU) in agar BHI: 1 UFC
Origin tube 64
  Colony forming unites (CFU) in agar BHI: 1 UFC
Origin tube 128
  Colony forming unites (CFU) in agar BHI: 0 UFC
Origin tube 512
  Colony forming unites (CFU) in agar BHI: 0 UFC
Origin tube 526
  Colony forming unites (CFU) in agar BHI: 0 UFC
